Data from patent publication US5446035A, “20-methyl-substituted vitamin D derivatives” (Schering Aktiengesellschaft, priority 1991, dated 1995).

What was measured:
HL-60 cells = test: induction of HL-60 cell differentiation to macrophages (NBT reduction); type: cell-based, human; details: 96 hours incubation, formazan at 650 nm
Description: It is known in the literature (Mangelsdorf, D. J. et al., J. Cell. Biol. 98: 391-398 (1984)) that the treatment of human leukemia cells (promyelocyte cell line HL-60, available, e.g., from the ATCC, Rockville, Md.) in vitro with calcitriol induces the differentiation of the cells to macrophages.
HL-60 cells are cultivated in tissue culture medium (RPMI - 10% fetal calf serum) at 37° C. in an atmosphere of 5% CO2 in air.
For substance testing, the cells are centrifuged and 2.8×10^5 cells/ml are suspended in phenol red-free tissue culture medium. The test substances are dissolved in ethanol and diluted with tissue culture medium without phenol red to achieve the desired concentration. The diluted test substances are mixed with the cell suspension in a ratio of 1:10 and 100 μl each of this cell suspension mixed with substance is pipetted in a depression of a 96-hole plate. As a control, a cell suspension is prepared similarly, but only with the solvent. […]
To dissolve the formed intracellular formazan crystals, 100 μl of potassium hydroxide (2 mol/l) and 100 μl of dimethylsulfoxide are pipetted into each depression and ultrasonically irradiated for 1 minute. The concentration of formazan is spectrophotometrically measured at 650 nm.
As a measurement for the differentiation induction of HL 60 cells to macrophages, the concentration of formed formazan is determined. […]

[1] = tested on: human peripheral blood mononuclear cells; test: PHA-stimulated lymphocyte proliferation ([3H]-thymidine incorporation); type: cell-based; details: PBMC, PHA 5 μg/well, 96 hours after stimulation, read-out: concentration inhibiting lymphocyte proliferation by 50%
Description: At the time of seeding, cells were treated with phytohemagglutinin (PHA) 5 μg/well. The test compound was added at the same time as PHA in various concentration. Lymphocyte proliferation was determined 96 hours after stimulation by incorporation of [^3 H]-thymidine. For that, [^3 H]-thymidine (0.2 μCi/well) was added for the last 6 hours of culture, then medium and cells were filtrated through a glass fiber filter. Radioactivity of the filters were determined in a β-counter.

[2] = tested on: IL-2 secretion, human peripheral blood mononuclear cells; test: IL-2 secretion by PHA-stimulated lymphocytes (ELISA); type: cell-based; details: compared with calcitriol; PHA 20 μg/well, 24 hours
Description: For determination of IL-2 secretion, human peripheral blood mononuclear cells were prepared as above, seeded at a density of 2×10^6 cells/well×200 μl into 24-well-plates and cultured in RPMI 1640 in the presence of 2% fetal calf serum. At the time of seeding, PHA (20 μg/well) and the test compound was added. 24 hours after stimulation, cell cultures were harvested, medium separated from cells by centrifugation, and IL-2 concentration in the medium determined by an ELISA based on a polyclonal antibody IL-2.

SMILES | relative activity in inducing differentiation: ED50 test substance/ED50 calcitriol (HL-60 cells) | IC50 [1] | concentration range at which inhibition of IL-2 secretion starts [2]
C=C1/C(=C\C=C2/CCC[C@]3(C)[C@@H](C(C)(C)/C=C/C=C/C(C)(C)O)CC[C@@H]23)C[C@@H](O)C[C@@H]1O [1(S),3(R)-Dihydroxy-20-(5-hydroxy-5-methyl-hexa-1E,3E-dien-1-yl)-20-methyl-9,10-secopregna-5Z,7E,10(19)-triene] | ~0.001 |  | 
C=C1/C(=C\C=C2/CCC[C@]3(C)[C@@H]([C@H](C)CCCC(C)(C)O)CC[C@@H]23)C[C@@H](O)C[C@@H]1O [1,25-dihydroxy-vitamin D3, 1α,25-dihydroxycholecalciferol, reference compound] |  | 0.44 nM | 
C=C1/C(=C\C=C2/CCC[C@]3(C)[C@@H](C(C)(C)CC=CC(C)(C)O)CC[C@@H]23)C[C@@H](O)C[C@@H]1O [ZK 157202, 1α,25-dihydroxy-20-methyl-23,24-dehydrovitamin D3] |  | 0.013 nM | about the same as for calcitriol
